# According to ChEMBL document CHEMBL1201862, “PubChem BioAssay data set” (2004):
# The source made the active and inactive calls.
# What was measured:
# [1] = target: T1, Oxysterols receptor LXR-beta (Homo sapiens, UniProt P55055); assay type: functional, cell-based
# T1 sequence (P55055 whole entry): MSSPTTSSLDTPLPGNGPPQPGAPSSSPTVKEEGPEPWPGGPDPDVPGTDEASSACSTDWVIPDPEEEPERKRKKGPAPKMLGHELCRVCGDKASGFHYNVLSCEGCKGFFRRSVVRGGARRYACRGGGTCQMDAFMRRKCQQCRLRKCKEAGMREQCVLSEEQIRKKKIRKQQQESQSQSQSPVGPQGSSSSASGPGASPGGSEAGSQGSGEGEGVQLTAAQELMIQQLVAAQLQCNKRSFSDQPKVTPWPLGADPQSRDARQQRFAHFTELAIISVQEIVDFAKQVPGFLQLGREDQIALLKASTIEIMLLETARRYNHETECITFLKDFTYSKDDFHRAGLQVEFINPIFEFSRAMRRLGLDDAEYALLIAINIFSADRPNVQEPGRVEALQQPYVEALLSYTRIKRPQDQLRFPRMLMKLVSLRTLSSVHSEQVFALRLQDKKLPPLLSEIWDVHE
# [2] = cells
# [3] = target: Cytochrome P450 3A4 (Homo sapiens, UniProt P08684);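 further: CYP3A4 tested as one member of a cytochrome P450 panel screen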
# Cytochrome P450 3A4, sequence (P08684 whole entry): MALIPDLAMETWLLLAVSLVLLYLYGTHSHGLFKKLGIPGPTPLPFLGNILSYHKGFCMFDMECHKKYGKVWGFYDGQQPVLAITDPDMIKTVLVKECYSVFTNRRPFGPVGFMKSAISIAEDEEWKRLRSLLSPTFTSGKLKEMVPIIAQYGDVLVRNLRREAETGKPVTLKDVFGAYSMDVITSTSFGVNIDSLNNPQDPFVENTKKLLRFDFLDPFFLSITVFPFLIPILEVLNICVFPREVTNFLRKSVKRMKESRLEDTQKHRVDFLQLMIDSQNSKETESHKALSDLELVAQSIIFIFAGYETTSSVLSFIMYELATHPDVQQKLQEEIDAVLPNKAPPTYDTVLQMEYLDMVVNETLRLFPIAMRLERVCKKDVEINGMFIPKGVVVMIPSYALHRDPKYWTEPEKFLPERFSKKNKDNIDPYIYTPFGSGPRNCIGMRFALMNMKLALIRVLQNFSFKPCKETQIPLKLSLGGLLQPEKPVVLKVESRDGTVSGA
# [4] = target: fMet-Leu-Phe receptor (Homo sapiens, UniProt P21462); assay: FPR ligands, dose response (AID 519); assay type: functional
# fMet-Leu-Phe receptor, sequence (P21462 whole entry): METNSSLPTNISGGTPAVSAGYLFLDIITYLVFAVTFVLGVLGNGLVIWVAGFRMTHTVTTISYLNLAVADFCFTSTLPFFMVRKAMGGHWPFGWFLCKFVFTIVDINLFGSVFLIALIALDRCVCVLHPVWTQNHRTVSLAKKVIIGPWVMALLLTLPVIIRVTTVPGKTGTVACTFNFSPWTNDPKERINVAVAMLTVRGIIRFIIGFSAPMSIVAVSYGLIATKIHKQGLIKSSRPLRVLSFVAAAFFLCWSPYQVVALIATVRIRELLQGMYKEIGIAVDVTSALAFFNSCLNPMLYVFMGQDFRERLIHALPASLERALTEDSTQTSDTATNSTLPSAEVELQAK
# [5] = target: Cytochrome P450 2C9 (Homo sapiens, UniProt P11712)
# Cytochrome P450 2C9, sequence (P11712 whole entry): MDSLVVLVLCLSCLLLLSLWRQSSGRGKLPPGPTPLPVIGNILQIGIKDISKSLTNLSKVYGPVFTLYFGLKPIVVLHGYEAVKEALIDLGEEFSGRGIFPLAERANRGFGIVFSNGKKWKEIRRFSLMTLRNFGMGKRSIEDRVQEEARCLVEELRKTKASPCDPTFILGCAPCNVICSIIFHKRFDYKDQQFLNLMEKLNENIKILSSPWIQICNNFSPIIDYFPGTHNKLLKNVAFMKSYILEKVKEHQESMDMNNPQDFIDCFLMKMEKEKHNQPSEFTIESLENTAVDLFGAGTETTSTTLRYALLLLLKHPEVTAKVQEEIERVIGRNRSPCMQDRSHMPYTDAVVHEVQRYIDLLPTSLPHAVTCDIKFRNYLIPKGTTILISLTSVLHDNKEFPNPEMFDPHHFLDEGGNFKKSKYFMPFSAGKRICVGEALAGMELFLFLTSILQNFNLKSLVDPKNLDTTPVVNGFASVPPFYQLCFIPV
# [6] = target: Cytochrome P450 2C19 (Homo sapiens, UniProt P33261); assay: Cytochrome panel assay with activity outcomes. Panel member name: p450-cyp2c19 Compounds with AC50 equal or less than 10 uM are considered active; assay type: functional; details: read-out: AC50
# Cytochrome P450 2C19, sequence (P33261 whole entry): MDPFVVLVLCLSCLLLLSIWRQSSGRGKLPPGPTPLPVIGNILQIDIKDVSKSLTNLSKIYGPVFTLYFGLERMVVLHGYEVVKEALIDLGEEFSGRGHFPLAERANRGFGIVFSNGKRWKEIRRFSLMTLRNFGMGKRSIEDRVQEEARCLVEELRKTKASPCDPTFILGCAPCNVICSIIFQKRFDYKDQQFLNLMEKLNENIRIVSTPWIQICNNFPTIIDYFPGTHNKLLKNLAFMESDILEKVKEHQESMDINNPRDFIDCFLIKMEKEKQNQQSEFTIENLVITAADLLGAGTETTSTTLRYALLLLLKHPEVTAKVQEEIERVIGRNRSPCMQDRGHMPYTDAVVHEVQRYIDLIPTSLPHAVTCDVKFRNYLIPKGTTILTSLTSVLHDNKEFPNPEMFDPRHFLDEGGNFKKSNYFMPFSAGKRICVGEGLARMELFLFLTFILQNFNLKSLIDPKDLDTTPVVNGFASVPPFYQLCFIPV
# [7] = target: T2, Cytochrome P450 1A2 (Homo sapiens, UniProt P05177);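 further: PubChem cytochrome P450 panel assay, CYP1A2 panel member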
# T2 sequence (P05177 whole entry): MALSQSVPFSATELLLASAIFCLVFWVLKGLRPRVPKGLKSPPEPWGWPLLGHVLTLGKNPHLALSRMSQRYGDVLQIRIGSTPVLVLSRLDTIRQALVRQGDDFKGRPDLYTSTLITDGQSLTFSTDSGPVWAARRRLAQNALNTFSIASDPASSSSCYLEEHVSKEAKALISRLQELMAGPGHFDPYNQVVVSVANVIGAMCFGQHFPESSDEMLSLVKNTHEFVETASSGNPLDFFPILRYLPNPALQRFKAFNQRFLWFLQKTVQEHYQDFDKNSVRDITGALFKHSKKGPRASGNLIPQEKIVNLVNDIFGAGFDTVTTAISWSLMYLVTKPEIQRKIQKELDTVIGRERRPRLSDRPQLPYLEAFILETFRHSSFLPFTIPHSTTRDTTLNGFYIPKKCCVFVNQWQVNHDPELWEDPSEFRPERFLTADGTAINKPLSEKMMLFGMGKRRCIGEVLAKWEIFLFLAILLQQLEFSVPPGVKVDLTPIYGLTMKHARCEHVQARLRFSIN
# [8] = target: Kallikrein-7 (Homo sapiens, UniProt P49862); assay: Fluorescence Intensity-based biochemical primary high throughput dose response assay to identify activators of kallikrein-7 (K7) zymogen.
# Kallikrein-7, sequence (P49862 whole entry): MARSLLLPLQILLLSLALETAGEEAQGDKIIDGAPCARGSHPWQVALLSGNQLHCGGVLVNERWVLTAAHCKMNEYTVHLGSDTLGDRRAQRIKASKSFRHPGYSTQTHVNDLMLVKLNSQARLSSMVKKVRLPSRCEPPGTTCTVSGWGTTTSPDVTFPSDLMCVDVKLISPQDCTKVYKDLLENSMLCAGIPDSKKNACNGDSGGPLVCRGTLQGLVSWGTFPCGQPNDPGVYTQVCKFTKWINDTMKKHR
# [9] = inhibitors of PGC1a acetylation in cells, dose response, cell-based, cherry-picked samples (AID 720514); assay type: functional;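 further: potency may reflect raised or lowered acetylation signal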
# [10] = target: T3, Protein skinhead-1 (Caenorhabditis elegans, UniProt P34707); assay type: functional
# T3 sequence (P34707 whole entry): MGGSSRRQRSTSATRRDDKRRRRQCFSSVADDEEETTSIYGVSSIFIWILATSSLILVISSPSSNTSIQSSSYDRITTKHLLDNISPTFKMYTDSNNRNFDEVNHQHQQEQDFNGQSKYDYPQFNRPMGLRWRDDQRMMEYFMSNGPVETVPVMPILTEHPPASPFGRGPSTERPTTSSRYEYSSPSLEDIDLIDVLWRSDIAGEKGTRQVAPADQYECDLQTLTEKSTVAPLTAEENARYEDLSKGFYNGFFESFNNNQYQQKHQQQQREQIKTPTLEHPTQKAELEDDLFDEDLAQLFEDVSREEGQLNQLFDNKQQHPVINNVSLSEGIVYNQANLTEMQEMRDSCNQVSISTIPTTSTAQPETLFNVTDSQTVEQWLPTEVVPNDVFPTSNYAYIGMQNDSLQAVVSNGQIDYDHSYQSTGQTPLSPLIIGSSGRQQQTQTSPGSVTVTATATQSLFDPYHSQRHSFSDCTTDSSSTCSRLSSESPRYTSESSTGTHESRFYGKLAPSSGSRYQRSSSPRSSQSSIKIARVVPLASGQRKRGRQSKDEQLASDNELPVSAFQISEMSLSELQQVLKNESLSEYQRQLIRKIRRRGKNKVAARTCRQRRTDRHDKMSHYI
# [11] = target: T1, Oxysterols receptor LXR-beta; assay type: functional, cell-based; remark: listed apart in the source
# [12] = target: T4, DNA repair and recombination protein RAD54-like (Homo sapiens, UniProt Q92698); assay: inhibitors of human RAD54 branch migration, confirmation, biochemical, fluorescence, cherry-picked samples, dose series (AID 651657); assay type: functional
# T4 sequence (Q92698 whole entry): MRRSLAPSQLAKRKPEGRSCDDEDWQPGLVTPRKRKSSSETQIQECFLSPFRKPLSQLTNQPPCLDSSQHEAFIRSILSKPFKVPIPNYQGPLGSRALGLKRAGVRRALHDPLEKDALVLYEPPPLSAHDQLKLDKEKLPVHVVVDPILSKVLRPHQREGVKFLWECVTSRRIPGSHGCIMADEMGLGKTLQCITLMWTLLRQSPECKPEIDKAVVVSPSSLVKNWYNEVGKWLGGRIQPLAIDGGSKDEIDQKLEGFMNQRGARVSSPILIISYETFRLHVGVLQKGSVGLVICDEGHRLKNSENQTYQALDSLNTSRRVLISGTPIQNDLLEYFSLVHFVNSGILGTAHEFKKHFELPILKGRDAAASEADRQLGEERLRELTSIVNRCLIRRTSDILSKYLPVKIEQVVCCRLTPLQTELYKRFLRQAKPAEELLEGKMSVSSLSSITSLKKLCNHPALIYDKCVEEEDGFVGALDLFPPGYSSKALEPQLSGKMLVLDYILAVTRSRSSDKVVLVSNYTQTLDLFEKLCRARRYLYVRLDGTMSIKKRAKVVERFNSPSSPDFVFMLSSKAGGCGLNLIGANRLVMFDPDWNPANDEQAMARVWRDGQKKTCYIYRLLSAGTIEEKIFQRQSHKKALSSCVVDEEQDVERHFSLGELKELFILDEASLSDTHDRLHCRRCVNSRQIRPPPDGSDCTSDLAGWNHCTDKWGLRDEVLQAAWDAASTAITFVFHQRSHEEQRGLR
# [13] = target: T5, DNA repair protein RAD52 homolog (Homo sapiens, UniProt P43351); assay type: functional, biochemical
# T5 sequence (P43351 whole entry): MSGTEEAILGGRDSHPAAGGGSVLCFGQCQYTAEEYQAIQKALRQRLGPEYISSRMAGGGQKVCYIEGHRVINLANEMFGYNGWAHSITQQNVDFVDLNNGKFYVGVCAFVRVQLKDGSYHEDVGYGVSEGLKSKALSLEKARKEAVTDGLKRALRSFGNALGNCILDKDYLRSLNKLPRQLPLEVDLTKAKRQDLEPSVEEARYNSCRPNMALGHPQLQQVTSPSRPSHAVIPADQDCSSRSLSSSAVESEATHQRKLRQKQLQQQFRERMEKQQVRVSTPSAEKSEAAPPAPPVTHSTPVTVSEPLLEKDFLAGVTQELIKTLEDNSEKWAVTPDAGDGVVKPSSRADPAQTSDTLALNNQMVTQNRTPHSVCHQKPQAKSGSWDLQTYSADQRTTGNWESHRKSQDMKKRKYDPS
# [14] = target: Long-chain-fatty-acid--AMP ligase FadD28 (Mycobacterium tuberculosis, UniProt P9WQ59); assay: Fluorescence polarization aasay to screen for inhibitors that compete for the binding of FadD28 to a bisubstrate Measured in Biochemical System Using Plate Reader - 2147-01_Inhibitor_Dose_CherryPick_Activity.; assay type: functional, Mycobacterium tuberculosis H37Rv
# Long-chain-fatty-acid--AMP ligase FadD28, sequence (P9WQ59 whole entry): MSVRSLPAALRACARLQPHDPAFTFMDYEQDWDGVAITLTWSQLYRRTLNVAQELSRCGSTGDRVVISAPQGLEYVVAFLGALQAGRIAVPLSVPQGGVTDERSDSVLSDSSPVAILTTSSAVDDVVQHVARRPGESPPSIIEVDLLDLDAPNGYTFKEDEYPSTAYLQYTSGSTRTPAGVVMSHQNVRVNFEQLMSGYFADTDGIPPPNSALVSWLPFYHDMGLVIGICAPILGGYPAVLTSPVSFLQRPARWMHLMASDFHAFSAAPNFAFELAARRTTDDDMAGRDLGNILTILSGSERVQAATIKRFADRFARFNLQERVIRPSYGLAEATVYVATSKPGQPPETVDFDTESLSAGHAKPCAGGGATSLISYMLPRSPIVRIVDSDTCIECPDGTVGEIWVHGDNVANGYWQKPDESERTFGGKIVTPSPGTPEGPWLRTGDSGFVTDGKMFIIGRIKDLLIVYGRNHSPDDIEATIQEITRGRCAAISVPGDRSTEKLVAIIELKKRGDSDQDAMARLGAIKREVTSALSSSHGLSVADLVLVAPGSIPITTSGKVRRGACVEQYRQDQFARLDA
# [15] = target: T6, Mannose-6-phosphate isomerase (Homo sapiens, UniProt P34949); assay: human PMI inhibitors, high substrate, primary screen, biochemical, fluorescence intensity, high mannose 6-phosphate (AID 1220)
# T6 sequence (P34949 whole entry): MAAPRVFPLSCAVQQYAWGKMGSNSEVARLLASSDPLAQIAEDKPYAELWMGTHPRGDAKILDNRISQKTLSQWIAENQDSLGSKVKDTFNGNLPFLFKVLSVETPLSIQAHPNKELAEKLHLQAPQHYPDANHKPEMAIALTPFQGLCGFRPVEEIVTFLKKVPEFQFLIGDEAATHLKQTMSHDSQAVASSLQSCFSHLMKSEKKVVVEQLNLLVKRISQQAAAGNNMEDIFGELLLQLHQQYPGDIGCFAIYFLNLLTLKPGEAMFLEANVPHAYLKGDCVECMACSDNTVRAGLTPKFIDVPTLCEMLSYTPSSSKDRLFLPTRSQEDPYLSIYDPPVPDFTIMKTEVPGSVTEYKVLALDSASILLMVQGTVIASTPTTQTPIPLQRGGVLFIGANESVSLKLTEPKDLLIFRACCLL
# [16] = target: Luciferin 4-monooxygenase (Photinus pyralis, UniProt P08659); assay: firefly luciferase enzyme inhibitors, dose response, biochemical, luminescence (AID 1891)
# Luciferin 4-monooxygenase, sequence (P08659 whole entry): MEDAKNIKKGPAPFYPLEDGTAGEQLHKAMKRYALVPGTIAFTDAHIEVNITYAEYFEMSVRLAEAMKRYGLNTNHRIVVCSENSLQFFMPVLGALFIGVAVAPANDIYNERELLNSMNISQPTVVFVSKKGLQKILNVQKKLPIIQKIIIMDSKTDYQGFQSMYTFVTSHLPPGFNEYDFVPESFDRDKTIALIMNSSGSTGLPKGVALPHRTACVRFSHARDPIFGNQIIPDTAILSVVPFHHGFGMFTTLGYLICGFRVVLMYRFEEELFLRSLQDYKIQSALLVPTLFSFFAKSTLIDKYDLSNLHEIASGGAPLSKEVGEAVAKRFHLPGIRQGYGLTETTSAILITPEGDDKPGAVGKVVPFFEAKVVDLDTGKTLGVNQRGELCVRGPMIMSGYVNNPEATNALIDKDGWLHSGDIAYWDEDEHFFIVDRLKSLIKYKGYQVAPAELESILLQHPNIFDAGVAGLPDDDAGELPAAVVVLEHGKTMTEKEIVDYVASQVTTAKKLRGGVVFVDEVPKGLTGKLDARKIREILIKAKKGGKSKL
# [17] = Luminescence Cell-Based Dose Confirmation HTS to Identify Inhibitors of Platelet Dense Granule Release. [Related pubchem assays: 1663 (Primary HTS), 1678 (Summary of Project)]; assay type: functional
# [18] = cytotoxicity in OVCAR8 ovarian cancer cells, dose response, PAX8 project, cell-based, plate reader, dry powder samples (AID 743197); assay type: functional; details: OVCAR-8
# [19] = target: Paired box protein Pax-8 (Homo sapiens, UniProt Q06710); assay: inhibitors of PAX8-driven TPO luciferase reporter, dose response, RMG-I cells, cherry-pick (AID 687027); assay type: functional, cell-based;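 further: luciferase reporter driven by Pax8 target thyroperoxidase promoter measured by SteadyGlo luminescence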
# Paired box protein Pax-8, sequence (Q06710 whole entry): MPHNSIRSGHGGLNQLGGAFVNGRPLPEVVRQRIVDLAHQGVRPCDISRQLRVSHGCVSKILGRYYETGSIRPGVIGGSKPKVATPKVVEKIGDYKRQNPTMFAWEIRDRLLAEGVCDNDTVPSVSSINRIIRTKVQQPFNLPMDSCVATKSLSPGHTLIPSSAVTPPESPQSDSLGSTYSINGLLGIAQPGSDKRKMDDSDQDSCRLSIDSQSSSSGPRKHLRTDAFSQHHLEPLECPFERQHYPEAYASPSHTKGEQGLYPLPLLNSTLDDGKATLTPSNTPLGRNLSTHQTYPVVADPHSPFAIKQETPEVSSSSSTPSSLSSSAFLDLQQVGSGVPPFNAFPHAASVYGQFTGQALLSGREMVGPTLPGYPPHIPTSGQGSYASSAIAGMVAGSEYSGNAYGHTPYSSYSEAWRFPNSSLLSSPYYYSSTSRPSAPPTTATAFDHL
# [20] = NIH:OVCAR-3 ovarian cancer cell cytotoxicity, dose response, PAX8 inhibitor project, plate reader, dry powder samples (AID 743044); assay type: functional, cell-based
# [21] = IGROV1 ovarian cancer cell cytotoxicity, dose response, PAX8 inhibitor project, plate reader, dry powder samples (AID 743043); assay type: functional, cell-based; details: IGROV-1
# [22] = inhibitors of clade B AD8 Env fusion, dose response, cell-based, cherry-pick (AID 652062); assay type: functional;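 further: luciferase signal from cell-cell fusion driven by HIV-1 clade B AD8 Env; potency is for inhibitors of fusion seen as a drop in luminescence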
# [23] = MC4R antagonists, dose response, counter-screen for LGR2 antagonist project, cell-based, plate reader, cherry pick (AID 743444); assay type: functional;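 further: transfected HEK 293 cells stimulated with alpha-MSH peptide; potency of inhibitors of the alpha-MSH evoked signal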
# [24] = LGR2 antagonists, dose response, cell-based, HEK293, CRE-luciferase reporter, cherry pick, set 2 (AID 743343); assay type: functional;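 further: transfected cells were stimulated with diluted bursicon conditioned medium after compound addition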
# [25] = A549 cell cytotoxicity, dose response, cytotoxicity control, plate reader, cherry-pick, antagonist series (AID 743412); assay type: functional, cell-based
# [26] = HEK293 cell cytotoxicity, dose response, cytotoxicity control, plate reader, cherry-picked samples (AID 743446); assay type: functional, cell-based
# [27] = non-specific cell cytotoxicity, dose response, cytotoxicity control for PAX8 inhibitor project, plate reader, dry powder samples (AID 743021); assay type: functional, cell-based
# [28] = IOSE-T80 ovarian epithelial cell cytotoxicity, dose response, cytotoxicity control for PAX8 inhibitor project, plate reader, dry powder samples (AID 743045); assay type: functional, cell-based
# [29] = A2780 ovarian cancer cell cytotoxicity, dose response, cytotoxicity control, plate reader, dry powder samples (AID 743046); assay type: functional, cell-based
# [30] = P. falciparum ATP4 D1247Y mutant growth inhibitors, dose response, NITD609-resistant line, SYBR Green, dry powder (AID 1159571); assay type: functional, cell-based;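 further: parasites synchronized at ring stage by sorbitol before testing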
# [31] = P. falciparum Dd2 growth inhibitors, dose response, SYBR Green, dry powder samples (AID 1159566); assay type: functional, cell-based;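 further: potency for growth inhibition with lower SYBR green DNA signal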
# [32] = P. falciparum 3D7-ScDHODH growth inhibitors, dose response, SYBR Green, dry powder samples (AID 1159570); assay type: functional, cell-based;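 further: parasite growth measured after 72 hours of compound exposure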
# [33] = HepG2 cell cytotoxicity, dose response, cytotoxicity control, plate reader, dry powder samples (AID 1159569); assay type: functional, cell-based;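 further: inhibitor potency with signal falling toward the positive control level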
# [34] = P. falciparum Dd2 growth inhibitors, dose response, SYBR Green, cherry-picked samples (AID 1159567); assay type: functional, cell-based
smiles,measurement,setting,value
O=c1c2ccccc2cnn1-c1ccc(Cl)cc1,EC50,[1],> 67.5 µM (inactive)
same,EC50,[2],> 67.5 µM (inactive)
COc1cc(C2C(C(=O)c3cccs3)=C(O)C(=O)N2Cc2ccco2)cc(OC)c1OC (stereo unspecified),AC50,[3],25.1 µM (inconclusive)
same,Ki,[4],27 µM (inactive)
same,AC50,[5],25.1 µM (inconclusive)
same,AC50,[6],14.1 µM (inconclusive)
same,AC50,[7],17.8 µM (inconclusive)
Cc1c(CNCc2cccs2)c(C(=O)O)c(C)n1Cc1ccccc1,Ki,[4],> 66.7 µM (inactive)
CCC(NC(=O)Cc1c(C)c2c(cc(C)c3c(C)c(C)oc32)oc1=O)C(=O)O (stereo unspecified),EC50,[8],> 69.5 µM (inactive)
O=C(C=Cc1ccccc1)CC(c1ccccc1)N1CCOCC1 (stereo unspecified),AC50,[9],10.7 µM (active)
same,IC50,[10],10.9 µM (active)
COc1ccc2oc3cc(NCCN(C)C)ccc3c(=O)c2c1,EC50,[11],> 67.5 µM (inactive)
same,AC50,[12],7.73 µM (active)
same,AC50,[13],5.46 µM (active)
C/N=c1\scc(-c2ccccc2F)n1/N=C/c1ccc(O)c(O)c1O,EC50,[1],> 67.5 µM (inactive)
same,AC50,[14],32 µM (inactive)
same,IC50,[15],25.8 µM (active)
same,EC50,[16],1.68 µM (active)
same,EC50,[17],2.46 µM (active)
same,EC50,[2],> 67.5 µM (inactive)
COc1ccccc1C#Cc1ccc([C@H]2[C@H](C#N)N(C(=O)C3CCCC3)[C@H]2CO)cc1,AC50,[18],10.6 µM (active)
same,AC50,[19],4.38 µM (active)
same,AC50,[20],8.21 µM (active)
same,AC50,[21],32.2 µM (active)
same,AC50,[22],9.51 µM (active)
same,AC50,[23],3.59 µM (active)
same,AC50,[24],9.13 µM (active)
same,AC50,[25],> 52 µM (inactive)
same,AC50,[26],> 52 µM (inactive)
same,AC50,[27],19.8 µM (active)
same,AC50,[9],4.17 µM (active)
same,AC50,[28],21.8 µM (active)
COc1ccc(S(=O)(=O)N2CCCCN3[C@H](CO)[C@@H](c4ccc(C#CC(C)C)cc4)[C@H]3C2)cc1,AC50,[18],> 70 µM (inactive)
same,AC50,[19],12 µM (active)
same,AC50,[20],34 µM (active)
same,AC50,[29],27.1 µM (active)
O=C(C1CCC1)N1C[C@@H]2N[C@H](C1)[C@@H]2c1ccc(-c2ccccc2F)cc1,AC50,[30],3.47 µM (active)
same,AC50,[31],2.5 µM (active)
same,AC50,[32],3.03 µM (active)
same,AC50,[33],19.5 µM (active)
same,AC50,[34],2.24 µM (active)
